Data published in patent US9410217B2, “Method of reducing a fermentation and/or enzyme inhibitor in a saccharide-containing composition” (priority 2014, dated 2016).
“And” between values parts separate entries of the source, which are not always exact repeats. Identical values can stand only once. Like-named read-outs stand apart in the source and are kept apart here.

Columns and labels:
[1] = Reduction of HMF in sugar liquor after contact with amine
Protocol: Sugar liquor was prepared by a two-step hydrolysis process with subsequent refining. A slurry of particulate biomass was first subjected to a first hydrolysis step at about 190-240° C. and 50-80 bar for 1-120 min. The resulting solids were subjected to supercritical or near-critical water conditions at about 374-450° C. and 221-300 bar for less than 1 minute. The resulting liquid portion was concentrated to about 250-300 g/L of monomer sugar equivalent and acid hydrolyzed at about 100-200° C. for 1 hour. The acid-hydrolyzed liquor was filtered and neutralized with sodium hydroxide to a pH of about 5-7. After that, the liquid portion was overlimed with calcium oxide at pH of about 8-10 and filtered. The final pH adjustment to about 5-7 was done with 70% sulfuric acid. Overliming was performed to produce the sugar liquor used in these examples, and an aldehyde compound, HMF, subsequently re-added to simulate a sugar liquor that is not overlimed.
The pH of 100 g of the sugar liquor was adjusted to 6 with sodium hydroxide prior to addition of the amine. 1 g of m-phenylenediamine (MPD) was added to the sugar liquor, and the mixture was shaken for 1 hour.
Using the same procedure to prepare the sugar liquor as described in Example 1, the pH of 100 g of the sugar liquor was adjusted to 6 with NaOH prior to addition of the amine. For each sample, 1 g of amine was added, and the mixture was shaken for 1 hour.
Using the same procedure to prepare the sugar liquor as described in Example 1, the pH of 100 g of the sugar liquor was adjusted to 6 with sodium hydroxide prior to addition of the amine. For each sample, 1 g of amine was added, and the mixture was shaken for 1 hour.

Saccharomyces cerevisiae = assay: Fermentation test of treated sugar liquor with yeast; format: cell-based
Protocol: The saccharide-containing compositions of Examples 1 and 3 were subjected to a fermentation test with the yeast Saccharomyces cerevisiae. In the fermentation test, 1% yeast extract and 2% peptone were added to the saccharide-containing compositions of Examples 1 and 3 as growth nutrients, and these compositions were then inoculated with 5% inoculum of Saccharomyces cerevisiae (optical density 10). If more than 80% of sugars were consumed in 72 hours of fermentation, the test is considered a “pass” (i.e., a satisfactory test result).
The saccharide-containing compositions were subjected to a fermentation test with the yeast Saccharomyces cerevisiae. In the fermentation test, 1% yeast extract and 2% peptone were added to the saccharide-containing compositions as growth nutrients, and these compositions were then inoculated with 5% inoculum of Saccharomyces cerevisiae (optical density 10). If more than 80% of sugars were consumed in 72 hours of fermentation, the test is considered a “pass” (i.e., a satisfactory test result).

[2] = Reduction of syringaldehyde in xylose monomer stream (GC/MS); details: for Syringaldehyde: 100 g xylose monomer stream after treatment, shaken 30-60 min, untreated control 321.5 ppm; for syringaldehyde reduction (in words): xylose monomer stream, from about 321.5 ppm, pass is less than about 50 ppm
Protocol: The acid-hydrolyzed liquor was filtered and then neutralized with sodium hydroxide to a pH of about 5-7 to produce the xylose monomer stream. Five samples labeled Samples 1-5 were evaluated as described in Table 2. Sample 1 was an untreated control. […] The flask was shaken for 30-60 min, and Samples 2 and 5 were then analyzed for syringaldehyde by GC/MS. […] The flask was shaken for about 30-60 min, adjusted to pH of about 5 with H2SO4, and then filtered. The resulting liquid portion was analyzed by GC/MS. For Sample 4, the pH of 100 g of the xylose monomer stream was adjusted to 5-6 with NH4OH, the flask was shaken for 30-60 min, and then the samples were analyzed by GC/MS.

Pichia stipitis = assay: Fermentation testing of treated xylose monomer stream; format: cell-based
Protocol: For fermentation testing, the pH was adjusted back to 5 with H2SO4 and fermentation was performed with the xylose fermenting organism Pichia stipitis.

[3] = sugar liquor after contact, 1 g amine per 100 g liquor, pH 6, shaken 1 hour

Row | Compound | HMF [1, 3] [g/L] | % Glucose Consumed (Saccharomyces cerevisiae; 24 hr) [%] | Ethanol (Saccharomyces cerevisiae; 24 hr) [g/L] | HMF (Saccharomyces cerevisiae; 24 hr) [g/L] | % Glucose Consumed (Saccharomyces cerevisiae; 48 hr) [%] | Ethanol (Saccharomyces cerevisiae; 48 hr) [g/L] | HMF (Saccharomyces cerevisiae; 48 hr) [g/L] | % Glucose Consumed (Saccharomyces cerevisiae; 72 hr) [%] | Ethanol (Saccharomyces cerevisiae; 72 hr) [g/L] | HMF (Saccharomyces cerevisiae; 72 hr) [g/L] | other results
1 | C1CCNCC1 [piperidine] |  |  |  |  |  |  |  |  |  |  | HMF ([1]; pH 6): 6.13 g/L; % Glucose Consumed (Saccharomyces cerevisiae): 5.39% and 8.05% and 5.62% and 5.78%; Ethanol (Saccharomyces cerevisiae): 2.37 g/L and 2.49 g/L and 2.71 g/L and 2.15 g/L; HMF (Saccharomyces cerevisiae): 5.31 g/L and 4.83 g/L and 5.51 g/L and 5.61 g/L
2 | Nc1cccc(N)c1 [MPD, m-phenylenediamine] | 1.50 | 95.64 | 77.25 |  |  |  |  |  |  |  | Syringaldehyde [2]: Not detected; syringaldehyde reduction (in words) [2]: below detectable levels; Ethanol (Pichia stipitis; fermentation time 48 hr): 1.80 g/L; Ethanol (Pichia stipitis; fermentation time 72 hr): 4.86 g/L; Ethanol (Pichia stipitis; fermentation time 96 hr): 8.22 g/L; fermentability of treated sample (in words) (Pichia stipitis; xylose monomer stream, pH adjusted back to 5): fermentable
3 | Nc1ccc(N)cc1 [PPD, p-phenylenediamine] | 3.40 | 24.18 | 13.74 | 0.30 | 97.75 | 84.75 | 0.37 | 97.40 | 84.79 |  | 
4 | Nc1nc(N)nc(N)n1 [melamine] | 7.52 | 4.24 | 2.13 | 6.59 | 4.15 | 2.48 | 6.47 | 4.97 | 2.1 | 6.45 | % Glucose Consumed (Saccharomyces cerevisiae; 0 hr): 0%; HMF (Saccharomyces cerevisiae; 0 hr): 7.52 g/L
5 | Cc1ccc(N)cc1N [DAT, 2,4-diaminotoluene] | 0.74 | 51.55 | 43.15 |  | 96.03 | 92.29 |  | 95.88 | 86.38 |  | 
6 | Nc1ccccc1N [OPD, o-phenylenediamine] |  | 24.24 | 16.80 |  | 96.61 | 86.88 |  | 96.53 | 90.28 | 0.36 | 
7 | Nc1ccccc1 [aniline] | 7.43 | 5.19 | 1.55 | 5.2 | 5.19 | 1.51 | 4.89 |  |  |  | 
8 | NCCO [ethanolamine] | 6.01 | 7.92 | 3.53 | 5.24 | 6.29 | 2.74 | 5.03 | 7.45 | 2.92 | 4.67 | % Glucose Consumed (Saccharomyces cerevisiae; 120 hr): 12.73%; Ethanol (Saccharomyces cerevisiae; 120 hr): 3.54 g/L; HMF (Saccharomyces cerevisiae; 120 hr): 4.46 g/L
9 | [BH4-].[Na+] [NaBH4] |  |  |  |  |  |  |  |  |  |  | Syringaldehyde [2]: 218.4 ppm; syringaldehyde reduction (in words) [2]: did not reduce the concentration of syringaldehyde to below a detectable level
10 | NC(N)=O [urea] | 7.44 | 6.18 | 2.72 | 6.58 | 4.49 | 2.23 | 6.49 | 6.35 | 2.39 | 6.06 | % Glucose Consumed (Saccharomyces cerevisiae; 0 hr): 0%; Ethanol (Saccharomyces cerevisiae; 0 hr): 1.38 g/L; HMF (Saccharomyces cerevisiae; 0 hr): 7.44 g/L; % Glucose Consumed (Saccharomyces cerevisiae; 120 hr): 8.49%; Ethanol (Saccharomyces cerevisiae; 120 hr): 2.41 g/L; HMF (Saccharomyces cerevisiae; 120 hr): 5.66 g/L
11 | N.O [NH4OH] |  |  |  |  |  |  |  |  |  |  | Syringaldehyde [2]: 147.7 ppm; syringaldehyde reduction (in words) [2]: did not reduce the concentration of syringaldehyde to below a detectable level
